The test concerns the target T1, Neutrophil Elastase (NE) (Homo sapiens, UniProt P08246).
T1 construct: purchased Abcam ab118971
T1 sequence (P08246 30-267): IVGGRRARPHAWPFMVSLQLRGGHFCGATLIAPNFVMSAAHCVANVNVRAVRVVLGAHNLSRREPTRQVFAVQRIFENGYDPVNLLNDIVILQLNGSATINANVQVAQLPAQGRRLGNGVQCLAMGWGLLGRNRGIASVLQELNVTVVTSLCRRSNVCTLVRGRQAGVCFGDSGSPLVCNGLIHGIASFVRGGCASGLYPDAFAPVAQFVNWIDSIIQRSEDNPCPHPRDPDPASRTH
Kind of test: Inhibition of neutrophil elastase (NE), fluorescence kit (Abcam ab118971). The format is biochemical. Particulars: 5 min pre-incubation at 37° C.; Ex/Em=400/505 nm; slope of fluorescence; read-out: IC50, enzyme activity of the NE. On the procedure:
An Inhabitation Effect of the TM to Neutrophil Elastase (NE)
• 1. Experimental materials include a NE protease detection kit (ab118971) of an Abcam company and TM. • 2. Experimental methods are as follows. In a black 96-well plate, a blank well group, a negative control well group and a sample well group are set, and a reaction system is 100 μL. The blank well group is added with 75 μL of buffer, the negative control well group is added with 50 μL of NE protease and 25 μL of buffer, the sample well group is added with 50 μL of NE protease and 25 μL of TM solution (respectively with concentrations of 0.00001 μM, 0.0001 μM, 0.001 μM, 0.003 μM, 0.01 μM 0.1 μM, 1 μM, and 10 μM), and the three groups are incubated at a temperature of 37° C. for 5 min. Each well is added with 25 μL of substrate, after mixing evenly, fluorescence value of each well is immediately detected at Ex/Em=400/505 nm, and is detected every 20 seconds, and a dynamic process within a range of 0-40 min is observed. Two different time points (T1 and T2) are selected within a linear range of the dynamic process to obtain fluorescence values (RFUT1 and RFUT2) corresponding to the time points, a slope of the fluorescence values is calculated, and the slope can be regarded as an enzyme activity of each well. […] A half inhibitory concentration (IC50) is calculated through the Origin 2021 software. • 3.

The IC50 is the point on the concentration scale where inhibition reaches its midpoint.

Take `CCC[C@@H]1NC(=O)[C@@H](NC=O)CNC(=O)[C@H](CS(=O)(=O)O)NC(=O)/C=C/c2csc(n2)[C@H](Cc2ccc(O)cc2)NC(=O)C(=O)[C@H]([C@@H](C)CC)NC1=O` [TM]: the IC50 was determined as 1.27 nM.

Values taken from patent publication US12162894B2, “Structural analog of Cyclotheonellazole A, and synthetic method therefor and application method thereof” (The Second People's Hospital of Shenzhen (Shenzhen …, priority 2022, dated 2024).
